Experiments:
Format in all cases: cell-based, human
[1] = test system: undifferentiated iPSCs (2.038); experiment: Generation of definitive endoderm (DE) from undifferentiated iPSCs with or without CHIR; details: for CXCR4/CD117 co-expressing cells / Output DE Day 7: 2 μM CHIR (+)
Description: Undifferentiated iPSCs maintained using Essential 8 on Matrigel were plated at a seeding density of 13,000 cells/cm^2 on Matrigel. Four days-post-plating, the cells were placed in 90% RPMI/10% SFD media containing 100 ng/mL Activin A for one day followed by incubation with 90% RPMI/10% SFD supplemented with 100 ng/mL Activin A, 2.5 ng/mL BMP4, 10 ng/mL VEGF, and 10 ng/mL zebrafish FGF2 for the next two days. From day 4-12, the cells were placed in SFD media supplemented with 100 ng/mL Activin A, 2.5 ng/mL BMP4, 10 ng/mL VEGF, and 10 ng/mL zebrafish FGF2. Supplementation with 2 μM CHIR was included in one set at day 1 of differentiation while it was omitted in another set. The cells were harvested on day 7 using TrypLE. The total viable cell number post digestion was determined at each time point. The percentage of CXCR4, CD117 co-expressing cells was determined by cell surface staining by flow cytometry (Table 1). The absolute number of CXCR4/CD117 double-positive cells was calculated. The ratio of input iPSC to output DE was also quantified (Table 1).

2.038AT4 cells [2] = experiment: Beta cell differentiation of 2.038AT4 EPCs with Dox induction, intracellular flow cytometry; details: Dox 1.5 μg/ml between day 10-15, harvested day 15, repeat experiment
Description: 2.038AT4.14EGN (also called 2.038AT4) cells were maintained in Essential 8 under hypoxic conditions during DE induction without CHIR using 2.5 ng/ml BMP4. DE were maintained in EPC cycling media without MEFs under hypoxic conditions. Media was supplemented with neomycin (100 ug/ml) and puromycin (600 ng/ml) for iPSC culture, DE culture, and EPC cycling. At P7, EPC were harvested and MACS purification was performed using CD34/CXCR4/CD117. Purified cells were plated on neat Matrigel in the presence of a Rock inhibitor.
Beta cell differentiation was initiated 5 days post re-aggregation according to the protocol described by Nostro et al. (2011) further modified by Cheng et al. (2012a) in a 2D format. Dox was added at different stages of the beta cell differentiation process. Dox (1.5 μg/ml) induction was performed between days 6-15 of beta cell differentiation, between days 8-15 of beta cell differentiation, or between days 10-15 of beta cell differentiation. The cells were harvested on day 15 of beta cell differentiation, fixed, and stained for quantification of PDX/NeuroD1/C-peptide/Glucagon/Somatostatin by intracellular flow cytometry.
The experiment was performed again with the addition of Dox (1.5 μg/ml) between day 10-15 of beta cell differentiation. The cells were harvested on day 15 of beta cell differentiation and assayed for PDX/NeuroD1/C-Peptide/Glucagon/Somatostatin expression levels by intracellular flow cytometry. […] The total C-Peptide levels were around 10% of which 5% of cells appeared monohormonal. Glucagon expression was not recorded. C-peptide release assays were performed as described above. […] Both the Dox induced and un-induced beta cell cultures were capable of eliciting a dose-dependent response to glucose (FIG. 30).

[3] = test system: beta cells derived from 2.038AT4 cells; experiment: C-peptide release assay (glucose responsiveness) of end-stage beta cells
Description: C-peptide release assays were performed as previously described (D'Amour et al., 2006) using a Mercodia Ultrasensitive C-peptide ELISA kit (Mercodia). Briefly, aggregates that were beyond day 25 in the beta cell differentiation protocol from each iPSC clone were placed in a millicell PCF insert within a 24 well plate. The aggregates were equilibrated in 1 ml KRBH medium for one hour at 37° C. and 5% CO2, 20% O2. The aggregates were next placed in a second well containing 0.5 ml KRBH medium supplemented with serially increasing levels of glucose from 1-20 mM. Each incubation lasted for 20 mins at 37° C. and 5% CO2, 20% O2. Extreme care was taken to drain the aggregates of all residual fluid between well transfers. The supernatant left behind was collected and stored at −20° C. At the end of the experiment the aggregates were digested with TryPLE and the total viable cell count per sample was determined to normalize the data. C-peptide secretion was normalized based on the total viable cell number taken for each sample.
C-peptide release assays were performed as described in Example 12. Beta cell cultures induced with Dox induction between days 10-15 generated a response to between 1-5 mM glucose (FIG. 28). […]
The experiment was performed again with the addition of Dox (1.5 μg/ml) between day 10-15 of beta cell differentiation. […] Glucagon expression was not recorded. […]

2.038AT4 cells [4] = experiment: qPCR analysis of ERG and GFI expression; details: Dox induction during beta cell differentiation
Description: The levels of ERG (FIG. 32A) and GFI (FIG. 32B) transcripts at different stages of the process were quantified from 2.038 and 2.038AT4 cells. Dox induction of 2.038AT4 cells was only applied at the beta cell differentiation stage. Cells from 2.038AT4 were always cultured in media containing neomycin (100 μg/mL) and puromycin (600 ng/mL) regardless of stage of differentiation. RNA was isolated from undifferentiated iPSC, DE, EPC, and beta cell cultures derived from 2.038 cells and 2.038AT4 cells using the RNeasy Plus Mini Kit from Qiagen (Catalog #74136) according to the manufacturer's directions. RNA quantification was performed using the Nanodrop 2000. RNA was reverse transcribed with the ImProm-II RT System from Promega (Catalog # A3800) according to manufacturer's directions. rt-qPCR was performed using TaqMan Gene Expression Master Mix (Catalog #4369016) and TaqMan probes (ERG: Hs01554629_m1; GFI1: Hs00382207_m1; GAPDH: Hs99999905_m1) with technical triplicates and run on the Roche LightCycler for 45 cycles. Fold induction was calculated by DeltaCp with normalization to GAPDH. Undifferentiated iPSCs of the same genetic background were used as negative controls. Whole pancreas RNA (Ambion Catalog # AM7954) and human islets provided by the UW Islet Core were used as positive controls.

| SMILES | CXCR4/CD117 co-expressing cells ([1]; cell line 2.038 (1131), format 6 well, harvested day 7) | Output DE Day 7 ([1]; cell line 2.038 (1131), format 6 well, input iPSCs 1.95 ×10^6) | CXCR4/CD117 co-expressing cells ([1]; cell line 2.038, format T150, harvested day 7) | Output DE Day 7 ([1]; cell line 2.038, format T150, input iPSCs 5.85 ×10^6) | Effect on efficiency of DE formation ([1]; CHIR added on day zero of endoderm induction) | Monohormonal cells (2.038AT4 cells [2]) | PDX/NeuroD1 expression (2.038AT4 cells [2]) | Total C-Peptide levels (2.038AT4 cells [2]) | Glucose concentration range of dose-dependent C-peptide response ([3]; Dox 1.5 μg/ml between day 10-15, repeat experiment, un-induced cultures also responded) | Glucose concentration range eliciting C-peptide response ([3]; Dox induction between days 10-15) | Level of ERG/GFI transcripts (2.038AT4 cells [4]) |
| --- | --- | --- | --- | --- | --- | --- | --- | --- | --- | --- | --- |
| Cc1c[nH]c(-c2cnc(NCCNc3ccc(C#N)cn3)nc2-c2ccc(Cl)cc2Cl)n1 [CHIR, CHIR99021] | 45% | 84 ×10^6 | 54% | 186 ×10^6 | did not result in increased efficiency of DE formation | – | – | – | – | – | – |
| C[C@H]1c2cccc(O)c2C(=O)C2=C(O)[C@]3(O)C(=O)C(C(N)=O)=C(O)[C@@H](N(C)C)[C@@H]3[C@@H](O)[C@@H]21 [Dox, Doxycycline] | – | – | – | – | – | 5% | 25%-30 | around 10% | 1 to 15 mM | 1 to 5 mM | slight increase |
